Like-named read-outs stand apart in the source and are kept apart here.

The target of data set [1] is T1, System xc^− transporter (SXc^−) (Homo sapiens, UniProt Q9UPY5).
T1 sequence (Q9UPY5 1-501): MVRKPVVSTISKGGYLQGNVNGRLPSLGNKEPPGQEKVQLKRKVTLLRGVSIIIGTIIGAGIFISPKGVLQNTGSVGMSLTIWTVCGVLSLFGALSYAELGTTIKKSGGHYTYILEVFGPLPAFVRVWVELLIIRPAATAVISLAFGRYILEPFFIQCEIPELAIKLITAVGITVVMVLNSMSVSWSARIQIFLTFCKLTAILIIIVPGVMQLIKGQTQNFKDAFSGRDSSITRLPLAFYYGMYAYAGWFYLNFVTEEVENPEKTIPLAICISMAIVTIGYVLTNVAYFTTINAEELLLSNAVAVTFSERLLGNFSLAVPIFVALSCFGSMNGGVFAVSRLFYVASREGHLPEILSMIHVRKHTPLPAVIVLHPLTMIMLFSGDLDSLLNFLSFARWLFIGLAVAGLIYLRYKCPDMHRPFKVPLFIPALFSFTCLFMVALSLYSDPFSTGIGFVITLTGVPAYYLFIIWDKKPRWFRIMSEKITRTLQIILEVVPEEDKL
T1 sequence (P08195 1-529 partner): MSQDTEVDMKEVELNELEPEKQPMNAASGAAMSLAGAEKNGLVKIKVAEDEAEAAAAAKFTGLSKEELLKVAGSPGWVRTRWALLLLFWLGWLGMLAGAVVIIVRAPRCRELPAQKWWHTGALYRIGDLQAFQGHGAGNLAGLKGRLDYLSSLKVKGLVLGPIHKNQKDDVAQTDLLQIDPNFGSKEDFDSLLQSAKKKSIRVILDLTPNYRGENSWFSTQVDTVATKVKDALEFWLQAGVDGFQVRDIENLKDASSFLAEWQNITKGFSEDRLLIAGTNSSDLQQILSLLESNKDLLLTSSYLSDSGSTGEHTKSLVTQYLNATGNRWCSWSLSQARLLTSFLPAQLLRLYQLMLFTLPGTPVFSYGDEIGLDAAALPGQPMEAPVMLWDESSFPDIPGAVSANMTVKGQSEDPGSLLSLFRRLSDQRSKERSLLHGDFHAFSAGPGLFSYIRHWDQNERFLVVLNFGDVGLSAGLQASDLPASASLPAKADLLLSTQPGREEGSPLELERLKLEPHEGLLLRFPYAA
In kind it is cell-based. The following applies: SNB-19 cells; for inhibitory activity at SXc^− (in words): initial screen at a single concentration (250 μM or 500 μM).

Data set [2] concerns the target SXc^−. The following applies: read-out: Ki at SXc^−; cited from earlier work.
In data set [3] the test system is SXc^−. The following applies: cited from earlier work.
The subject of data set [4] is AMPA receptor. The note with it: brain slice; cited from earlier work.
The target in data set [5] is T2, SXc^− (Homo sapiens, UniProt Q9UPY5).
T2 sequence (Q9UPY5 1-501): T1 sequence (Q9UPY5 1-501)
T2 sequence (P08195 1-529 partner): T1 sequence (P08195 1-529 partner)
Format: cell-based. The note with it: SNB-19 cells, Na-free; for substrate-induced efflux of L-Glu (substrate activity): 500 μM; for attenuation of L-Cys2-induced efflux of L-Glu: added together with L-cystine.

For data set [6], the system named is GluR2. The note with it: S1S2 construct filter assay; Gouaux, personal communication; cited from earlier work.
The nature of data set [7]: Conversion of open hydrazone to closed isoxazolo[3,4-d]pyridazinone in solution. Format: physicochemical. The note with it: on standing in solution, 11a to 13a.

In the case of “4-{1-[(3,5-Bis-trifluoromethyl-phenyl)-hydrazono]-ethyl}-5-(2-naphthalen-2-yl-ethyl)-isoxazole-3-carboxylic acid [Compound 11e]”, the “inhibition of SXc^−-mediated L-Glu uptake” value in data set [1] (compound 500 μM (100 minus % of control of Table 2)) is on record as 86%. Also, the “inhibitory activity at SXc^− (in words)” value in data set [1] is listed as “moderate amount of inhibitory activity”.

As a reminder, the Ki is the dissociation constant of the complex between target and ligand, obtained from inhibition or displacement. For `N[C@H](C(=O)O)c1ccc(C(=O)O)cc1` [Compound 4-S-CPG, 4-S-carboxy-phenylglycine], the inhibitory constant (Ki) in data set [2] is ~5 µM. The “substrate activity at SXc^− (in words)” value in data set [3] is given as “essentially a non-substrate inhibitor”.

Take `Cc1onc(O)c1C[C@H](N)C(=O)O` [Compound 6, aminomethyl isoxazole propionic acid, reference compound]: in data set [1], the “inhibitory activity at SXc^− (in words)” value is on record as “no discernable activity”.

For the compound `Cc1onc(C(=O)O)c1C[C@H](N)C(=O)O` [Compound 7, amino-3-carboxy-5-methylisoxazole propionic acid, reference compound], in data set [1], the “inhibitory activity at SXc^− (in words)” value was “no discernable activity”.

For the compound `N[C@@H](Cc1c(C(=O)O)noc1CCc1ccccc1)C(=O)O` [Compound 7d], the “displacement of radiolabeled AMPA” value in data set [4] is on record as “essentially no ability to displace radiolabeled AMPA”. For the same compound, in data set [1], the “inhibitory activity at SXc^− (in words)” value is “markedly inhibit”.

In the case of `N[C@@H](Cc1c(C(=O)O)noc1COCc1ccccc1)C(=O)O` [Compound 7e, 4-[(2R,S)-2-amino-2-carboxyethyl]-5-[benzyloxymethyl]isoxazole-3-carboxylic acid], the “inhibitory activity at SXc^− (in words)” value in data set [1] was “markedly inhibit”.

On to `N[C@@H](Cc1c(C(=O)O)noc1CCc1cccc2ccccc12)C(=O)O` [Compound 7f], for which the “displacement of radiolabeled AMPA” value in data set [4] is reported as “essentially no ability to displace radiolabeled AMPA”. In addition, the “inhibitory activity at SXc^− (in words)” value in data set [1] was “markedly inhibit”.

As to `N[C@@H](Cc1c(C(=O)O)noc1CCc1ccc2ccccc2c1)C(=O)O` [Compound 7g], in data set [5], the “substrate-induced efflux of L-Glu (substrate activity)” value is “did not induce an efflux of L-Glu over background levels” and the “attenuation of L-Cys2-induced efflux of L-Glu” value is reported as “did attenuate the ability of L-Cys2 to exchange with intracellular L-Glu”. The “attenuation of L-Cys2-induced efflux of L-Glu” value in data set [5] (listed as S-2-naphthyl-ACPA) is listed as “attenuate L-cystine-induced efflux”. In addition, in data set [4], the “displacement of radiolabeled AMPA” value is listed as “essentially no ability to displace radiolabeled AMPA”. Besides, the “inhibitory activity at SXc^− (in words)” value in data set [1] was “markedly inhibit”.

As for `C/C(=N\NC(N)=O)c1c(C(=O)O)noc1C` [Compound 9b], the GluR2 binding entry in data set [6] is recorded as “no detectable GluR2 binding”.

As to `C/C(=N\NC(=O)Nc1ccccc1)c1c(C(=O)O)noc1C` [Compound 9c], the GluR2 binding result in data set [6] is recorded as “no detectable GluR2 binding”. Besides, the “inhibitory activity at SXc^− (in words)” value in data set [1] is on record as “moderate amount of inhibitory activity”.

For `C/C(=N\Nc1ccccc1)c1c(C(=O)O)noc1C` [Compound 11a, 5-Methyl-4-[1-(phenyl-hydrazono)-ethyl]-isoxazole-3-carboxylic acid], the “time for the open form to convert to the closed [3,4-d] form in solution” value in data set [7] is “a matter of a few hours”.

With `C/C(=N\Nc1ccc([N+](=O)[O-])cc1[N+](=O)[O-])c1c(C(=O)O)noc1C` [Compound 11d, 4-{1-[(2,4-Dinitro-phenyl)-hydrazono]-ethyl}-5-methyl-isoxazole-3-carboxylic acid], the GluR2 binding entry in data set [6] is reported as “no detectable GluR2 binding”.

For `C/C(=N\Nc1ccc([N+](=O)[O-])cc1[N+](=O)[O-])c1c(C(=O)O)noc1COCc1ccc2ccccc2c1` [Compound 17, 4-{1-[(2,4-Dinitro-phenyl)-hydrazono]-ethyl}-5-(naphthalen-2-ylmethoxymethyl)-isoxazole-3-carboxylic acid], in data set [1], the “inhibitory activity at SXc^− (in words)” value was “virtually devoid of activity”.

For `N[C@@H](Cn1oc(=O)[nH]c1=O)C(=O)O` [QA, quisqualate], in data set [2], the Ki is ~5 µM. The “rate of exchange with L-Glu relative to L-Cys2” value in data set [3] is reported as 35%.

Turning to L-cystine [reference compound], the “substrate-induced efflux of L-Glu (substrate activity)” value in data set [5] was “produced a significant efflux of L-glutamate over baseline”.
